According to patent US7138361B2, “Herbicidal heterocycles” (E. I. du Pont de Nemours and Company, priority 2000, dated 2006):

Tests used:
Type in all cases: in vivo
[1] = tested on: Surinam grass (Brachiaria decumbens); test: Test B preemergence
Summary of the method: (§1)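 Visual injury scores, 0 = no effect to 100 = complete control, assigned against controls after 13 to 15 days in the greenhouse. Compounds formulated in non-phytotoxic solvent plus surfactant and applied to soil after planting (pre) or onto foliage of 1- to 4-leaf plants (post).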

[2] = tested on: barnyardgrass (Echinochloa crus-galli); test: Test B preemergence
Summary of the method: as §1

[3] = tested on: cocklebur (Xanthium strumarium); test: Test B preemergence
Summary of the method: as §1

[4] = tested on: corn (Zea mays); test: Test B preemergence
Summary of the method: as §1

[5] = tested on: crabgrass (Digitaria sanguinalis); test: Test B preemergence
Summary of the method: as §1

[6] = tested on: giant foxtail (Setaria faberii); test: Test B preemergence
Summary of the method: as §1

[7] = tested on: lambsquarters (Chenopodium album); test: Test B preemergence
Summary of the method: as §1

[8] = tested on: morning glory (Ipomoea hederacea); test: Test B preemergence
Summary of the method: as §1

[9] = tested on: pigweed (Amaranthus retroflexus); test: Test B preemergence
Summary of the method: as §1

[10] = tested on: rice (Oryza saliva); test: Test B preemergence
Summary of the method: as §1

[11] = tested on: velvetleaf (Abutilon theophrasti); test: Test B preemergence
Summary of the method: as §1

[12] = tested on: Nightshade; test: Test C preemergence
[13] = tested on: Surinam grass (Brachiaria decumbens); test: Test C preemergence; conditions: for Plant response rating (0 to 100), Surinam grass: visual evaluation after 12 to 14 days
Summary of the method: (§2)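 Response scores (0 no effect to 100 complete control) came from visual comparison with untreated controls 12 to 14 days after treatment. Preemergence application was made to seeded soil; postemergence, to plants at the 1- to 4-leaf stage.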

[14] = tested on: cocklebur (Xanthium strumarium); test: Test C preemergence; conditions: for Plant response rating (0 to 100), Cocklebur: visual evaluation after 12 to 14 days
Summary of the method: as §2

[15] = tested on: common ragweed (Ambrosia elatior); test: Test C preemergence; conditions: for Plant response rating (0 to 100), Ragweed, Common: Rate 500 g/ha, visual evaluation after 12 to 14 days
Summary of the method: as §2

[16] = tested on: crabgrass (Digitaria sanguinalis); test: Test C preemergence; conditions: for Plant response rating (0 to 100), Crabgrass: visual evaluation after 12 to 14 days
Summary of the method: as §2

[17] = tested on: goosegrass (Eleusine indica); test: Test C preemergence; conditions: for Plant response rating (0 to 100), Goosegrass: visual evaluation after 12 to 14 days
Summary of the method: as §2

[18] = tested on: lambsquarters (Chenopodium album); test: Test C preemergence; conditions: for Plant response rating (0 to 100), Lambsquarters: Rate 500 g/ha, visual evaluation after 12 to 14 days
Summary of the method: as §2

[19] = tested on: pigweed (Amaranthus retroflexus); test: Test C preemergence; conditions: for Plant response rating (0 to 100), Pigweed: Rate 500 g/ha, visual evaluation after 12 to 14 days
Summary of the method: as §2

[20] = tested on: soybean (Glycine max); test: Test C preemergence; conditions: for Plant response rating (0 to 100), Soybean: Rate 500 g/ha, visual evaluation after 12 to 14 days
Summary of the method: as §2

[21] = tested on: woolly cupgrass (Eriochloa villosa); test: Test C preemergence; conditions: for Plant response rating (0 to 100), Cupgrass, Woolly: visual evaluation after 12 to 14 days
Summary of the method: as §2

[22] = Preemergence, Rate 500 g/ha, scale 0 to 100, 0 no effect, 100 complete control
[23] = preemergence, Rate 125 g/ha, scale of 0 to 100 where 0 is no effect and 100 is complete control, 13 to 15 days
[24] = Rate 125 g/ha, scale 0 to 100, 0 no effect, 100 complete control
[25] = Rate 250 g/ha, scale 0 to 100, 0 no effect, 100 complete control
[26] = preemergence, Rate 62 g/ha, scale 0 to 100
[27] = preemergence, Rate 250 g/ha, scale 0 to 100, 0 no effect, 100 complete control

COc1cc(N2CCC(n3ccc(C(C)C)n3)C2=O)ccc1C (stereo not shown) [Compound 85]
Plant response rating, Surinam grass [1, 22]: 90
Plant response rating, Surinam grass [1, 23]: 60
Plant response rating, Barnyardgrass [2, 22]: 100
Plant response rating, Barnyardgrass [2, 23]: 100
Plant response rating, Cocklebur [3, 22]: 90
Plant response rating, Cocklebur [3, 23]: 40
Plant response rating, Corn [4, 22]: 30
Plant response rating, Corn [4, 23]: 20
Plant response rating, Crabgrass [5, 22]: 100
Plant response rating, Crabgrass [5, 23]: 100
Plant response rating, Foxtail, Giant [6, 22]: 100
Plant response rating, Foxtail, Giant [6, 23]: 80
Plant response rating, Lambsquarters [7, 22]: 100
Plant response rating, Lambsquarters [7, 23]: 100
Plant response rating, Morningglory [8, 22]: 100
Plant response rating, Morningglory [8, 23]: 90
Plant response rating, Pigweed [9, 22]: 100
Plant response rating, Pigweed [9, 23]: 100
Plant response rating, Rice [10, 22]: 100
Plant response rating, Rice [10, 23]: 100
Plant response rating, Velvetleaf [11, 22]: 100
Plant response rating, Velvetleaf [11, 23]: 20
Plant response rating, Nightshade ([12]; Rate 62 g/ha, scale 0 to 100): 80
Plant response rating, Nightshade [12, 24]: 90
Plant response rating, Nightshade [12, 25]: 100
Plant response rating, Surinam grass [13, 24]: 30
Plant response rating, Surinam grass [13, 26]: 30
Plant response rating (0 to 100), Surinam grass ([13]; preemergence, Rate 250 g/ha): 100
Plant response rating (0 to 100), Surinam grass ([13]; preemergence, Rate 500 g/ha): 100
Plant response rating, Cocklebur [14, 24]: 60
Plant response rating, Cocklebur [14, 26]: 60
Plant response rating (0 to 100), Cocklebur ([14]; preemergence, Rate 250 g/ha): 60
Plant response rating (0 to 100), Cocklebur ([14]; preemergence, Rate 500 g/ha): 60
Plant response rating, Ragweed, Common [15, 24]: 100
Plant response rating, Ragweed, Common [15, 26]: 90
Plant response rating (0 to 100), Ragweed, Common ([15]; preemergence): 100
Plant response rating, Ragweed, Common [15, 27]: 100
Plant response rating, Crabgrass [16, 24]: 100
Plant response rating, Crabgrass [16, 26]: 100
Plant response rating (0 to 100), Crabgrass ([16]; preemergence, Rate 250 g/ha): 100
Plant response rating (0 to 100), Crabgrass ([16]; preemergence, Rate 500 g/ha): 100
Plant response rating, Goosegrass [17, 24]: 100
Plant response rating, Goosegrass [17, 26]: 20
Plant response rating (0 to 100), Goosegrass ([17]; preemergence, Rate 250 g/ha): 100
Plant response rating (0 to 100), Goosegrass ([17]; preemergence, Rate 500 g/ha): 100
Plant response rating, Lambsquarters [18, 24]: 100
Plant response rating, Lambsquarters [18, 26]: 100
Plant response rating (0 to 100), Lambsquarters ([18]; preemergence): 100
Plant response rating, Lambsquarters [18, 27]: 100
Plant response rating, Pigweed [19, 24]: 100
Plant response rating, Pigweed [19, 26]: 100
Plant response rating (0 to 100), Pigweed ([19]; preemergence): 100
Plant response rating, Pigweed [19, 27]: 100
Plant response rating, Soybean [20, 24]: 40
Plant response rating, Soybean [20, 26]: 20
Plant response rating (0 to 100), Soybean ([20]; preemergence): 100
Plant response rating, Soybean [20, 27]: 40
Plant response rating, Cupgrass, Woolly [21, 24]: 100
Plant response rating, Cupgrass, Woolly [21, 26]: 100
Plant response rating (0 to 100), Cupgrass, Woolly ([21]; preemergence, Rate 250 g/ha): 100
Plant response rating (0 to 100), Cupgrass, Woolly ([21]; preemergence, Rate 500 g/ha): 100

CCCC(C)c1ccn(C2CCN(c3cccc(C(F)(F)F)c3)C2=O)n1 (stereo not shown) [Compound 100]
Plant response rating, Surinam grass [1, 22]: 20
Plant response rating, Surinam grass [1, 23]: 0
Plant response rating, Barnyardgrass [2, 22]: 100
Plant response rating, Barnyardgrass [2, 23]: 0
Plant response rating, Cocklebur [3, 22]: 0
Plant response rating, Cocklebur [3, 23]: 0
Plant response rating, Corn [4, 22]: 20
Plant response rating, Corn [4, 23]: 0
Plant response rating, Crabgrass [5, 22]: 100
Plant response rating, Crabgrass [5, 23]: 0
Plant response rating, Foxtail, Giant [6, 22]: 70
Plant response rating, Foxtail, Giant [6, 23]: 0
Plant response rating, Lambsquarters [7, 22]: 100
Plant response rating, Lambsquarters [7, 23]: 100
Plant response rating, Morningglory [8, 22]: 0
Plant response rating, Morningglory [8, 23]: 0
Plant response rating, Pigweed [9, 22]: 100
Plant response rating, Pigweed [9, 23]: 70
Plant response rating, Rice [10, 22]: 20
Plant response rating, Rice [10, 23]: 0
Plant response rating, Velvetleaf [11, 22]: 0
Plant response rating, Velvetleaf [11, 23]: 0
Plant response rating, Nightshade ([12]; Rate 62 g/ha, scale 0 to 100): 0
Plant response rating, Nightshade [12, 24]: 0
Plant response rating, Nightshade [12, 25]: 0
Plant response rating, Surinam grass [13, 24]: 0
Plant response rating, Surinam grass [13, 26]: 0
Plant response rating (0 to 100), Surinam grass ([13]; preemergence, Rate 500 g/ha): 30
Plant response rating, Surinam grass [13, 27]: 0
Plant response rating, Cocklebur [14, 26]: 0
Plant response rating (0 to 100), Cocklebur ([14]; preemergence, Rate 500 g/ha): 0
Plant response rating, Cocklebur [14, 27]: 0
Plant response rating, Ragweed, Common [15, 24]: 0
Plant response rating, Ragweed, Common [15, 26]: 0
Plant response rating (0 to 100), Ragweed, Common ([15]; preemergence): 0
Plant response rating, Ragweed, Common [15, 27]: 0
Plant response rating, Crabgrass [16, 24]: 100
Plant response rating, Crabgrass [16, 26]: 100
Plant response rating (0 to 100), Crabgrass ([16]; preemergence, Rate 500 g/ha): 100
Plant response rating, Crabgrass [16, 27]: 100
Plant response rating, Goosegrass [17, 24]: 90
Plant response rating, Goosegrass [17, 26]: 80
Plant response rating (0 to 100), Goosegrass ([17]; preemergence, Rate 500 g/ha): 100
Plant response rating, Goosegrass [17, 27]: 100
Plant response rating, Lambsquarters [18, 24]: 100
Plant response rating, Lambsquarters [18, 26]: 90
Plant response rating (0 to 100), Lambsquarters ([18]; preemergence): 100
Plant response rating, Lambsquarters [18, 27]: 100
Plant response rating, Pigweed [19, 24]: 0
Plant response rating, Pigweed [19, 26]: 0
Plant response rating (0 to 100), Pigweed ([19]; preemergence): 100
Plant response rating, Pigweed [19, 27]: 20
Plant response rating, Soybean [20, 24]: 0
Plant response rating, Soybean [20, 26]: 0
Plant response rating (0 to 100), Soybean ([20]; preemergence): 0
Plant response rating, Soybean [20, 27]: 0
Plant response rating, Cupgrass, Woolly [21, 24]: 20
Plant response rating, Cupgrass, Woolly [21, 26]: 0
Plant response rating (0 to 100), Cupgrass, Woolly ([21]; preemergence, Rate 500 g/ha): 100
Plant response rating, Cupgrass, Woolly [21, 27]: 20
